Results on one compound are retold here after patent publication US20090022686A1, “PHARMACEUTICAL COMPOSITIONS FOR THE TREATMENT OF SYSTEMIC INFLAMMATORY RESPONSE SYNDROME” (Boehringer Ingelheim Pharma GmbH & Co. KG, priority 2002, published 2009).

For test [1], the system named is Systemic Inflammatory Response Syndrome (SIRS): Intravenous Lipopolysaccharide Stimulation. Kind of test: Animal model for SIRS: intravenous LPS bolus stimulation in rats (Method 1). The class given is in vivo. The following applies: for IL-6 / TAT: rat blood, ELISA. On the procedure: Animal Model for Systemic Inflammatory Response Syndrome (SIRS): Intravenous Lipopolysaccharide Stimulation (Modified According to Isobe et al. Circulation 2001; 104: 1171-1175)
Rats (male, approx. 300 g CrlGlxBrlHan:Wi) were anaesthetised with pentobarbital (60 mg/kg i.p.). To maintain the anaesthetic a pentobarbital drip was set up (22.5 mg/kg/h i.p.). The carotid artery was cannulated for taking blood samples, the left jugular vein was cannulated for administration of the substance and the right jugular vein was cannulated for administering the LPS. The administration of (R)-2-[…]-5-[1-(carboxymethylamino)-1-(pyrrolidinocarbonyl)-ethyl]-benzimidazole (0.1 mg/kg/h) was started at time t=−60 min as a continuous drip and maintained until the end of the experiment. One hour after the start of the infusion of the substance, a single bolus of LPS was administered (lipopolysaccharide of E. coli serotype 0127:B8 Sigma L-3129 5 mg/kg i.v. bolus) at time t=0 min. In order to determine the coagulation and inflammation parameters, blood was taken via the arterial cannulae at times a) before the infusion of placebo or (R)-2-(4-amidinophenylaminomethyl)-1-methyl-5-[1-(carboxymethylamino)-1-(pyrrolidinocarbonyl)-ethyl]-benzimidazole (−60 minutes), b) before administration of the LPS bolus (0 minutes) and c) 240 minutes after the administration of LPS. From the blood samples the TAT complex (thrombin-antithrombin) and interleukin-6 (IL-6) were determined by ELISA as parameters of a systemic inflammatory reaction.

Test [2] has the same test system. Kind of test: Animal model for SIRS: continuous intravenous LPS infusion in rats (Method 2). The class given is in vivo. On the procedure: Animal Model for Systemic Inflammatory Response Syndrome (SIRS): Intravenous Lipopolysaccharide Stimulation (Modified According to Aoki et al. Drug Res. 50: 809; 2000 and Yamazaki et al. Blood Coag. Fibrinol. 10: 321; 1999)
Rats (male, approx. 300 g CrlGlxBrlHan:Wi) were anaesthetised with pentobarbital (60 mg/kg i.p.). To maintain the anaesthetic a pentobarbital drip was set up (22.5 mg/kg/h i.p.). The left jugular vein was cannulated for administration of the substance and the right jugular vein was cannulated for administering the LPS. LPS was given as a continuous infusion for 4 hours (lipopolysaccharide of E. coli serotype 0127:B8 Sigma L-3129 7.5 mg/kg/h). (R)-2-(4-amidinophenylaminomethyl)-1-methyl-5-[1-(carboxymethylamino)-1-(pyrrolidinocarbonyl)-ethyl]-benzimidazole (0.1 mg/kg/h) was administered as a continuous infusion (100 μg/kg/h) one hour after the start of the LPS infusion with a total duration of 3 hours. In order to determine the inflammation parameters, blood was taken from the abdominal artery after a total test period of four hours. From the blood samples the TAT complex (thrombin-antithrombin), interleukin-1β (IL-1β), interleukin-6 (IL-6) and the tumour necrosis factor alpha (TNF-alpha) were determined by ELISA as parameters of a systemic inflammatory reaction. Alanine-aminotransferase (ALT) and creatinin served as enzyme parameters for organ damage to the liver and kidneys.

[3] abbreviates: 0 min (before LPS bolus, 1 h after start of infusion), active substance 100 μg/kg/h.
The mark [4] stands for this setting: +240 min after LPS 5 mg/kg i.v. bolus, active substance 100 μg/kg/h.
The mark [5] stands for this setting: result in words, LPS bolus, 0.1 mg/kg/h.
Where [6] appears, read: −60 min (before start of infusion), LPS + active substance 100 μg/kg/h continuous drip.
Where [7] appears, read: LPS 7.5 mg/kg/h × 4 h + 100 μg/kg/h infusion from 1 h after LPS start for 3 h, blood after 4 h, mean ± standard deviation.
Where [8] appears, read: result in words, continuous LPS infusion, 0.1 mg/kg/h.

Marks after values point to notes of the source that are not given here.

For `Cn1c(CNc2ccc(C(=N)N)cc2)nc2cc([C@@](C)(NCC(=O)O)C(=O)N3CCCC3)ccc21` [BIBT 986, (R)-2-(4-amidinophenylaminomethyl)-1-methyl-5-[1-(carboxymethylamino)-1-(pyrrolidinocarbonyl)-ethyl]-benzimidazole], in test [1] (setting [3]), the IL-6 was 0.143 ± 0.083 ng/mL and the TAT amounted to 2.21 ± 0.79 ng/mL. Besides, in test [1] (setting [4]), the IL-6 was 43.454 +/− 2.975 * ng/ml and the TAT was 6.52 +/− 1.33 * ng/ml. Further, in test [1] (setting [5]), the “plasma levels of IL-6 versus untreated LPS animals” value is reported as “significant (p<0.02) reduction”; the “plasma levels of the TAT complex versus untreated LPS animals” value was “significantly lower than in the untreated LPS animals (p<0.02) and were within the control range”. Also, in test [1] (setting [6]), the IL-6 is 0.139 ± 0.086 ng/mL and the TAT was determined as 2.33 ± 0.89 ng/mL. In addition, in test [2] (setting [7]), the IL-1β was determined as 4036 ± 1000 pg/mL, the IL-6 was determined as 89579 ± 10069 pg/mL and the TNF-alpha was found to be 1003 ± 292 pg/mL. The creatinin in test [2] (kidney damage marker, LPS 7.5 mg/kg/h × 4 h + 100 μg/kg/h infusion for 3 h, blood after 4 h, mean ± standard deviation) was 40.1 ± 1.8 µmol/L. For the same compound, the ALT in test [2] (liver damage marker, LPS 7.5 mg/kg/h × 4 h + 100 μg/kg/h infusion for 3 h, blood after 4 h, mean ± standard deviation) was 44.2 ± 7.1 U/ml. In test [2] (setting [8]), the “ALT versus untreated control animals” value is reported as “not significantly different from untreated control animals”, the “TAT complex versus LPS-treated animals” value was “significant lowering”, the “creatinin versus untreated control animals” value was “not significantly different from untreated control animals” and the “plasma levels of IL-1β versus LPS-treated animals” value is given as “significant (p<0.02) lowering”. Also, in test [2] (setting [8]), the “plasma levels of IL-6 versus LPS-treated animals” value is listed as “significant (p<0.02) lowering” and the “plasma levels of TNF alpha versus LPS-treated animals” value is reported as “significant (p<0.02) lowering”.
